Data set [1] in a line: Lyophilisation solubility assay (Lysa). The format is physicochemical. Particulars: phosphate buffer, pH 6.5, aqueous buffer, thermodynamic from solid. The gist of the method:
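Solubility in μg/mL is read by UV or HPLC-UV on filtrate, neat and diluted 1/10. Before filtration, the residue from evaporated 10 mM DMSO stock was taken up in pH 6.5 0.05 M phosphate buffer, then stirred 1 h, shaken 2 h and stood overnight, in duplicate.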

Data set [2] relates to HBV. As to the kind of experiment: Selectivity index (CC50 value/EC50 value). Format: cell-based, Hepatitis B virus. The gist of the method: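 Ratio of CC50 to EC50, measuring antiviral activity against HBV relative to cytotoxicity in vitro; higher values indicate greater separation between viral inhibition and cell death.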
A short description of data set [3]: Metabolic stability study in human microsome. Format: in vitro ADME. In short, it runs like this: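 Depletion of 1 μM compound followed by LC-MS/MS over 0–30 min (0, 3, 6, 9, 15, 30 min) after methanol quench. Incubations at 37 °C, pH 7.4 phosphate buffer, 0.5 mg/mL microsomal protein, with NADPH (1 mM) or a regenerating system as cofactor; controls lacked cofactor.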

The test system of data set [4] is HBV. Description: Anti-HBV activity in vitro in HepG2.2.15 cells (extracellular HBV DNA by qPCR). Format: cell-based, Hepatitis B virus. Particulars: Hepatitis B virus. The gist of the method:
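Supernatant HBV DNA was measured by qPCR after viral DNA extraction. Samples came from 5-day cultures of HepG2.2.15 cells, an HBV-genome-transfected HepG2 line, exposed to half-log compound dilutions in medium containing 0.5% DMSO.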

Data set [5] is described as follows: Cytotoxicity (CC50) in HepDE19 cells, CCK-8 cell viability. Format: cell-based. Particulars: human, HepDE19 cells. The gist of the method:
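HBV-transfected HepG2-derived HepDE19 cells grown in DMEM-F12 with 10% FBS and G418. Viability read five days after treatment by CCK-8, 2 h at 37 °C, absorbance at 450 and 630 nm.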

The mark [6] stands for this setting: HepG2.2.15 cells, in-house data, read-out: EC50.

Read-outs that look alike come from different tables or passages of the source. Some results are limits rather than exact numbers.

In data set [1], `CCOC(=O)C1=C(CN2CC(F)(F)C[C@H]2C(=O)O)NC(c2nccs2)=N[C@H]1c1cccc(F)c1Cl` [Example 64, (R)-6-((S)-2-Carboxy-4,4-difluoro-pyrrolidin-1-ylmethyl)-4-(2-chloro-3-fluoro-phenyl)-2-thiazol-2-yl-1,4-dihydro-pyrimidine-5-carboxylic acid ethyl ester] registered a thermodynamic solubility of more than 620 µg/mL. The “Selectivity index (CC50/EC50)” value in data set [2] amounted to 15667. In addition, in data set [3], the “Human Hepatic Clearance” value was determined as 0 mL/min/kg. The EC50 in data set [4] (setting [6]) worked out at 3 nM. Besides, in data set [5] (read-out: CC50), the CC50 at 5 days stood at 47000 nM.
On the same counts, the results for `COC(=O)C1=C(CN2CCOC[C@H]2C(=O)O)NC(c2ncoc2C)=N[C@H]1c1ccc(F)cc1Br` [Example 65, (S)-4-[(R)-6-(2-Bromo-4-fluoro-phenyl)-5-methoxycarbonyl-2-(5-methyl-oxazol-4-yl)-3,6-dihydro-pyrimidin-4-ylmethyl]-morpholine-3-carboxylic acid] are more than 678 µg/mL, more than 13157, 1.67 mL/min/kg, 7.6 nM and more than 100000 nM.
On the same counts, the results for `CCOC(=O)C1=C(CN2CCOC[C@H]2C(=O)O)NC(c2ncoc2C)=N[C@H]1c1ccc(F)cc1Br` [Example 69, (S)-4-[(R)-6-(2-Bromo-4-fluoro-phenyl)-5-ethoxycarbonyl-2-(5-methyl-oxazol-4-yl)-3,6-dihydro-pyrimidin-4-ylmethyl]-morpholine-3-carboxylic acid] are more than 658 µg/mL, 9500, 0 mL/min/kg, 6 nM and 57000 nM.
As for `CCOC(=O)C1=C(CN2CCOC[C@H]2C(=O)O)NC(c2nccs2)=N[C@H]1c1cccc(F)c1F` [Example 70, (S)-4-[(R)-6-(2,3-Difluoro-phenyl)-5-ethoxycarbonyl-2-thiazol-2-yl-3,6-dihydro-pyrimidin-4-ylmethyl]-morpholine-3-carboxylic acid], the solubility (thermodynamic) in data set [1] is more than 611 µg/mL. In addition, the “Selectivity index (CC50/EC50)” value in data set [2] was more than 11236. Moreover, the “Human Hepatic Clearance” value in data set [3] came to 2.22 mL/min/kg. Further, the concentration for a half-maximal effect (EC50) in data set [4] (setting [6]) was determined as 8.9 nM. The CC50 at 5 days in data set [5] (read-out: CC50) is more than 100000 nM.
On the same counts, the results for `COC(=O)C1=C(CN2CCOC[C@H]2C(=O)O)NC(c2nccs2)=N[C@H]1c1ccccc1Br` [Example 71, (S)-4-[(R)-6-(2-Bromo-phenyl)-5-methoxycarbonyl-2-thiazol-2-yl-3,6-dihydro-pyrimidin-4-ylmethyl]-morpholine-3-carboxylic acid] are more than 642 µg/mL, more than 20833, 2.81 mL/min/kg, 4.8 nM and more than 100000 nM.
On the same counts, the results for `COC(=O)C1=C(CN2CC(F)(F)C[C@H]2C(=O)O)NC(c2nccs2)=N[C@H]1c1ccc(F)c(F)c1Cl` [Example 74, (R)-6-((S)-2-Carboxy-4,4-difluoro-pyrrolidin-1-ylmethyl)-4-(2-chloro-3,4-difluoro-phenyl)-2-thiazol-2-yl-1,4-dihydro-pyrimidine-5-carboxylic acid methyl ester] are more than 655 µg/mL, 34286, 0.51 mL/min/kg, 2.1 nM and 72000 nM.
On the same counts, the results for `COC(=O)C1=C(CN2CCOC[C@H]2C(=O)O)NC(c2nccs2)=N[C@H]1c1ccc(Cl)cc1F` [Example 75, (S)-4-[(R)-6-(4-Chloro-2-fluoro-phenyl)-5-methoxycarbonyl-2-thiazol-2-yl-3,6-dihydro-pyrimidin-4-ylmethyl]-morpholine-3-carboxylic acid] are more than 632 µg/mL, 5556, 0 mL/min/kg, 18 nM and more than 100000 nM.
On to `COC(=O)C1=C(CN2CCOC[C@H]2C(=O)O)NC(c2nccs2)=N[C@H]1c1ccc(Cl)c(F)c1` [Example 77, (S)-4-[(S)-6-(4-Chloro-3-fluoro-phenyl)-5-methoxycarbonyl-2-thiazol-2-yl-3,6-dihydro-pyrimidin-4-ylmethyl]-morpholine-3-carboxylic acid], for which the solubility (thermodynamic) in data set [1] was more than 631 µg/mL. For the same compound, in data set [2], the “Selectivity index (CC50/EC50)” value worked out at 14286. Moreover, in data set [3], the “Human Hepatic Clearance” value was determined as 1.43 mL/min/kg. In data set [4] (HepG2.2.15), the midpoint of the response, the EC50, lay at 7 nM. In addition, the 50% cytotoxic concentration (CC50) at 5 days in data set [5] (read-out: CC50) was more than 100000 nM.
In turn, `CCOC(=O)C1=C(CN2CCOC[C@H]2C(=O)O)NC(c2nccs2)=N[C@H]1c1ccc(Cl)c(F)c1` [Example 83, (S)-4-[(S)-6-(4-Chloro-3-fluoro-phenyl)-5-ethoxycarbonyl-2-thiazol-2-yl-3,6-dihydro-pyrimidin-4-ylmethyl]-morpholine-3-carboxylic acid] registered a solubility (thermodynamic) in data set [1] of more than 652 µg/mL. The “Selectivity index (CC50/EC50)” value in data set [2] came to 16440. Moreover, the “Human Hepatic Clearance” value in data set [3] is 1.77 mL/min/kg. Besides, the EC50 in data set [4] (setting [6]) is 1.5 nM. In addition, in data set [5] (read-out: CC50), the CC50 at 5 days was 25000 nM.
`COC(=O)C1=C(CN2CC(F)(F)C[C@H]2C(=O)O)NC(c2nccs2)=N[C@H]1c1ccc(F)cc1Br` [Example 84, (R)-4-(2-Bromo-4-fluoro-phenyl)-6-((S)-2-carboxy-4,4-difluoro-pyrrolidin-1-ylmethyl)-2-thiazol-2-yl-1,4-dihydro-pyrimidine-5-carboxylic acid methyl ester] registered a thermodynamic solubility in data set [1] of more than 668 µg/mL. Besides, the “Selectivity index (CC50/EC50)” value in data set [2] is recorded as more than 41667. The “Human Hepatic Clearance” value in data set [3] is on record as 9.3 mL/min/kg. The compound also had an EC50 in data set [4] (HepG2.2.15) of 2.4 nM. The CC50 at 5 days in data set [5] is more than 100000 nM.
The compound `COC(=O)C1=C(CN2CC(F)(F)C[C@H]2C(=O)O)NC(c2nccs2)=N[C@H]1c1ccc(Cl)cc1Cl` [Example 85, (R)-6-((S)-2-Carboxy-4,4-difluoro-pyrrolidin-1-ylmethyl)-4-(2,4-dichloro-phenyl)-2-thiazol-2-yl-1,4-dihydro-pyrimidine-5-carboxylic acid methyl ester] returned a thermodynamic solubility in data set [1] of more than 599 µg/mL. Besides, the “Selectivity index (CC50/EC50)” value in data set [2] was 10694. The “Human Hepatic Clearance” value in data set [3] was 6.91 mL/min/kg. Also, the EC50 in data set [4] (setting [6]) amounted to 6.2 nM. In addition, the cytotoxic concentration (CC50) at 5 days in data set [5] (read-out: CC50) amounted to 66000 nM.
Compound `COC(=O)C1=C(CN2CCOC[C@H]2C(=O)O)NC(c2nc(C3CC3)cs2)=N[C@H]1c1ccc(F)cc1Cl` [Example 87, (3S)-4-[[(4R)-4-(2-Chloro-4-fluoro-phenyl)-2-(4-cyclopropylthiazol-2-yl)-5-methoxycarbonyl-1,4-dihydropyrimidin-6-yl]methyl]morpholine-3-carboxylic acid] came in with a thermodynamic solubility in data set [1] of more than 600 µg/mL. Further, in data set [2], the “Selectivity index (CC50/EC50)” value is more than 4545. Moreover, the “Human Hepatic Clearance” value in data set [3] is given as 6.86 mL/min/kg. For the same compound, in data set [4] (setting [6]), the EC50 was found to be 22 nM. In addition, the CC50 at 5 days in data set [5] (read-out: CC50) turned out to be 100000 nM.
Consider `CCOC(=O)C1=C(CN2CCOC[C@H]2C(=O)O)NC(c2nccs2)=N[C@H]1c1ccc(Br)cc1F` [Example 93, (S)-4-[(R)-6-(4-Bromo-2-fluoro-phenyl)-5-ethoxycarbonyl-2-thiazol-2-yl-3,6-dihydro-pyrimidin-4-ylmethyl]-morpholine-3-carboxylic acid], for which the thermodynamic solubility in data set [1] is more than 690 µg/mL. For the same compound, the “Selectivity index (CC50/EC50)” value in data set [2] is listed as 6977. Also, the “Human Hepatic Clearance” value in data set [3] is reported as 1.24 mL/min/kg. Moreover, the EC50 in data set [4] (setting [6]) worked out at 4.3 nM. The CC50 at 5 days in data set [5] (read-out: CC50) amounted to 30000 nM.
On the same counts, the results for `COC(=O)C1=C(CN2CCOC[C@H]2C(=O)O)NC(c2nccs2)=N[C@H]1c1ccc(Br)cc1F` [Example 94, (S)-4-[(R)-6-(4-Bromo-2-fluoro-phenyl)-5-methoxycarbonyl-2-thiazol-2-yl-3,6-dihydro-pyrimidin-4-ylmethyl]-morpholine-3-carboxylic acid] are more than 677 µg/mL, 4600, 0.61 mL/min/kg, 20 nM and 92000 nM.
On the same counts, the results for `CCOC(=O)C1=C(CN2CCOC[C@H]2C(=O)O)NC(c2nccn2C)=N[C@H]1c1cccc(F)c1Cl` [Example 97, (S)-4-[(R)-6-(2-Chloro-3-fluoro-phenyl)-5-ethoxycarbonyl-2-(1-methyl-1H-imidazol-2-yl)-3,6-dihydro-pyrimidin-4-ylmethyl]-morpholine-3-carboxylic acid] are more than 640 µg/mL, 8800, 1.63 mL/min/kg, 5 nM and 44000 nM.

What is called solubility (thermodynamic) is solubility found after equilibrating the solid with the medium. Usually EC50 stands for the midpoint of the concentration-response curve. What is called CC50 is the concentration at which the toxic effect on the cells reaches its halfway point.

Values taken from patent US9447086B2, “6-amino acid heteroaryldihydropyrimidines for the treatment and prophylaxis of hepatitis B virus infection” (priority 2012, dated 2016).
